Earlier results on three compounds are cited in patent US20040248232A1, “Method for treating Alzheimer's dementia” (priority 2003, published 2004).

In data set [1] the target is purified rat cathepsin L (Rattus norvegicus, UniProt P07154). Particulars: cited from earlier work.
The target in data set [2] is purified rat cathepsin B (Rattus norvegicus, UniProt P00787). Particulars: at 10 uM; cited from earlier work.
Data set [3] addresses T1, cathepsin K (Homo sapiens, UniProt P43235).
T1 sequence (P43235 115-329): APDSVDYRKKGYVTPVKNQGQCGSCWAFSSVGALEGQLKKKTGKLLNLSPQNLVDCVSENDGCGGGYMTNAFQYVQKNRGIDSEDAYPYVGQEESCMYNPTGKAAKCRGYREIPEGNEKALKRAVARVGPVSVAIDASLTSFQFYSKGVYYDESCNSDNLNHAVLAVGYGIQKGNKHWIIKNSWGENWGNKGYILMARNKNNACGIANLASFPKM
The conditions noted are these: at micromolar levels; cited from earlier work.

The target in data set [4] is T2, cathepsin S (Homo sapiens, UniProt P25774). Particulars: at micromolar levels; cited from earlier work.
Data set [5] deals with cathepsin C (Homo sapiens, UniProt P53634). The conditions noted are these: at micromolar levels; cited from earlier work.
For data set [6], the target named is T3, cathepsin L activity in liver (Mus musculus, UniProt P06797).
T3 construct: host or cells: mouse liver (endogenous, in vivo dosing)
Particulars: intraperitoneal injection, mice; cited from earlier work.

In data set [7] the target is T4, cathepsin B activity (Mus musculus, UniProt P10605).
T4 construct: host or cells: mouse (liver implied by the sentence), endogenous, in vivo dosing
The conditions noted are these: intraperitoneal injection, mice; cited from earlier work.

For data set [8], the system named is Colon-26 cancer cells. Particulars: intravenous or p.o. administration, mice; cited from earlier work.
The test system of data set [9] is human melanoma cells A375. Particulars: intravenous or p.o. administration, mice; cited from earlier work.
Data set [10] deals with cancer induced osteoporosis. The conditions noted are these: intravenous or p.o. administration, mice; cited from earlier work.
For data set [11], the target named is T5, cathepsin L activity in DLD-1 cells (Homo sapiens, UniProt P07711).
T5 construct: host or cells: DLD-1 cells (endogenous)
The conditions noted are these: cited from earlier work.

The target of data set [12] is cathespin B (Homo sapiens, UniProt P07858). The conditions noted are these: cited from earlier work.
Data set [13] has as its target recombinant human cathepsin B (Homo sapiens, UniProt P07858). Particulars: cited from earlier work.
Data set [14] has as its target cathepsin L (Homo sapiens, UniProt P07711). The conditions noted are these: relative to recombinant human cathepsin B; cited from earlier work.
The target in data set [15] is T2, cathepsin S. The conditions noted are these: relative to recombinant human cathepsin B; cited from earlier work.

T2 sequence (P25774 115-331, species assumed): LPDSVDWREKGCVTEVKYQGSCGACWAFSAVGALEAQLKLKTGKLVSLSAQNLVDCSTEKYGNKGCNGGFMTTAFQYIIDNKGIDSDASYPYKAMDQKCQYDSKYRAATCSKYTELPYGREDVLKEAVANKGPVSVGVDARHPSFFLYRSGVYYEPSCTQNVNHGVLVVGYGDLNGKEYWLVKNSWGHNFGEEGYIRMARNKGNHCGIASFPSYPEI
Sequence of purified rat cathepsin L (P07154 114-334): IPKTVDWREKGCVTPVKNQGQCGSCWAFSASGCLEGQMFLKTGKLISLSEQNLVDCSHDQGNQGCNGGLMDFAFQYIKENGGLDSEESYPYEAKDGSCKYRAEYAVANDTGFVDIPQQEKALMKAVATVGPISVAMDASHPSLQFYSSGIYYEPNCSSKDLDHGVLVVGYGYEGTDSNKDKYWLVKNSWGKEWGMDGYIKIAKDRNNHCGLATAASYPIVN
T3 sequence (P06797 114-334): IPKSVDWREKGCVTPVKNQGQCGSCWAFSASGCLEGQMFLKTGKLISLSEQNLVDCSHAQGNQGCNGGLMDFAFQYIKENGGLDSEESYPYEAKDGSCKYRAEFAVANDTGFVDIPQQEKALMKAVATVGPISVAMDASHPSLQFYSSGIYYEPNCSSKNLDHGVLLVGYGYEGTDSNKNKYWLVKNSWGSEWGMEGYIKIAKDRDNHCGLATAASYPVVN
T4 sequence (P10605 80-333): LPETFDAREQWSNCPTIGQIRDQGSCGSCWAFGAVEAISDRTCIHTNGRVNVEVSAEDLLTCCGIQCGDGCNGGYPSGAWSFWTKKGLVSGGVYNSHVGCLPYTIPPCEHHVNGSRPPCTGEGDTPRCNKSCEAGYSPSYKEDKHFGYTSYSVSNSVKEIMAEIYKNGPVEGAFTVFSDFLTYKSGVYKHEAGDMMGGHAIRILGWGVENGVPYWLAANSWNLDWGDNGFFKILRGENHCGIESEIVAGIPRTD
Sequence of purified rat cathepsin B (P00787 80-333): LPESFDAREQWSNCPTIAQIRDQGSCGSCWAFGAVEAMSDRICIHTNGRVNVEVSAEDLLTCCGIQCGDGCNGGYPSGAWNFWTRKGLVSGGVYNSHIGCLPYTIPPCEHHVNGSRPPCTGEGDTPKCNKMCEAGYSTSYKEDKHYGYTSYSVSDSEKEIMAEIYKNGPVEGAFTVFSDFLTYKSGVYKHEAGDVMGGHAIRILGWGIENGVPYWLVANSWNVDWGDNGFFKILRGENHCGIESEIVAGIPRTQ
T5 sequence (P07711 114-333): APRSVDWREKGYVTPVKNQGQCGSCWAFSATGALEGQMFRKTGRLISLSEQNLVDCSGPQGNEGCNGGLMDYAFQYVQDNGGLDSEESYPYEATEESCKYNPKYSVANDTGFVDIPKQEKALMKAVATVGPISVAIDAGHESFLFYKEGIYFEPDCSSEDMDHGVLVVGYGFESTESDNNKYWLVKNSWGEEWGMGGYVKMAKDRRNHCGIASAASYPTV
Sequence of cathepsin L (P07711 114-333, species assumed): as the sequence (P07711 114-333) above
Sequence of cathepsin C (P53634 25-463): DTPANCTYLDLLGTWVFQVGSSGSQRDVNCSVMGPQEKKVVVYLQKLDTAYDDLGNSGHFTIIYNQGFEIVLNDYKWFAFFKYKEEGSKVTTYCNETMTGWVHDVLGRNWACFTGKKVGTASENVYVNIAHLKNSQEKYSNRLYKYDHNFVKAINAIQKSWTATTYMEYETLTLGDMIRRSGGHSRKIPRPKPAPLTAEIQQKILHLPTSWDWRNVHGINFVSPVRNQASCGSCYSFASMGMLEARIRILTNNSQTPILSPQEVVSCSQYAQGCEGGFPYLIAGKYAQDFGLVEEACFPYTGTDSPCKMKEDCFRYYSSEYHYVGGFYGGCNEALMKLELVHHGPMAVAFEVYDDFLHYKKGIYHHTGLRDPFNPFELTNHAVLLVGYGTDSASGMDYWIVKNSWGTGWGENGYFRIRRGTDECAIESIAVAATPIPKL

`CN(C)C(=O)[C@H](Cc1ccccc1)NC(=O)C1OC1C(=O)NCCc1ccccn1` (stereo in doubt) [CLIK-148]: the “inhibition of purified rat cathepsin L activity” value in [1] (at 1 uM) is “completely inhibited”. Also, in [1], the “level at which purified rat cathepsin L activity is inhibited” value is on record as “submicromolar levels”. The “effect on purified rat cathepsin B activity” value in data set [2] is on record as “no effect”. Further, the “activity on cathepsin K” value in data set [3] was “minimal activities”. The “activity on cathepsin S” value in data set [4] is on record as “minimal activities”. Moreover, the “activity on cathepsin C” value in data set [5] is reported as “minimal activities”. Besides, in [6], the “cathepsin L activity in liver” value is “dose dependently inhibited”. In data set [7], the “cathepsin B activity” value is “no effect”. In [8], the “bone metastasis of Colon-26 cancer cells” value is recorded as “blocked bone metastasis”. For the same compound, in data set [9], the “bone metastasis of human melanoma cells A375” value is “blocked bone metastasis”. The cancer induced osteoporosis entry in [10] is “blocked cancer induced osteoporosis”.
In the case of `CC(C)C[C@H](NC(=O)[C@H]1CCCN1C#N)C(=O)OCc1ccccc1` [1-cyano-(D)-prolylleucine benzyl ester], the “cathepsin L activity in DLD-1 cells” value in data set [11] is given as “completely inhibited”. Besides, in data set [12], the “activity on cathespin B” value is reported as “minimal activity”.
Turning to `Cc1cccc(C[C@H](NC(=O)c2ccc(F)cc2F)C(=O)N[C@@H](C#N)COCc2cccc(C(=O)O)c2)c1` [N-[2-[(3-Carboxyphenyl)methoxyl-1-(S)-cyanoethyl]-3-methyl-N-(2,4-difluorobenzoyl)-L-phenylalaninamide], the “recombinant human cathepsin B activity” value in [13] is reported as “inhibit”. Also, the “fold less potent in blocking cathepsin L than cathepsin B” value in data set [14] is “approximately 100 fold”. Moreover, the “fold less potent in blocking cathepsin S than cathepsin B” value in data set [15] is recorded as “approximately 100 fold”.
